Read-outs that look alike come from different tables or passages of the source. One block for each molecule: values may come before it. Starred links: 1 amine or outer side, 2 acyl side, 3 side chain; linkers in the order of their positions; H or OH if unused. Positions of bridges follow the written chain, without caps; N, C: chain ends. Non-standard residues stand in square brackets, D forms with d. Residues, ends and D or L forms follow the SMILES beside them. *: point of attachment. NH(CH2)3NH(O2Oc(DOTA)) = O=C(O)CN1CCN(CC(=O)O)CCN(CC(=O)NCCOCCOCC(=O)NCCCN*)CCN(CC(=O)O)CC1; DOTA = O=C(O)CN1CCN(CC(=O)O)CCN(CC(=O)*)CCN(CC(=O)O)CC1; Phe(4-NH2) = Nc1ccc(C[C@H](N)C(=O)O)cc1; mXylylene = c1cc(C[*:1])cc(C[*:2])c1; X2 = O=C(CN1CCC(N[*:1])CC1)[*:2]; X1 = O=C(CN1CCN([*:1])CC1)[*:2]; X31 = NS(=O)(=O)c1coc(C(=O)*)c1; Ac6c = NC1(C(=O)O)CCCCC1
Assays:
[1] = Plasma stability assay, mouse plasma; details: mouse plasma, 37°C
[2] = molecular target: T1, human carbonic anhydrase IX (hCAIX-Fc) (Homo sapiens, UniProt Q16790); experiment: Surface plasmon resonance assay with hCAIX-Fc; assay type: binding; details: 25° C.; for t1/2 category (activity): SPR dissociation half-life, hCAIX-Fc; for Kd: SPR, hCAIX-Fc captured, read-out: pKD category (activity) (converted)
T1 construct: purchased SinoBliological (Sino Biological) 10107-H02H

[3] = molecular target: T2, CAIX-expressing human HT-29 colorectal cancer cells (Homo sapiens, UniProt Q16790); experiment: FACS binding assay (IC50 determination, competition with tracer 3BP-2776 or 3BP-4149); details: 4° C., 1 hour, read-out: pIC50 category (activity) (converted)
T2 construct: CAIX-expressing human HT-29 colorectal cancer cells; host or cells: HT-29 human colorectal cancer cells
Procedure, shortened: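 HT-29 cells in FACS buffer (PBS, 1% FCS) at 500.000 cells/ml were exposed to compounds competing with a labelled tracer, with biotinylated compounds detected by 1 μg/mL APC-streptavidin for 30 min on ice. APC/Cy5 median fluorescence was read by flow cytometry and IC50 derived by 4PL fit.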

[4] = FACS competition on HT-29 cells, Tracer ID 3BP-2776 (10 nM, biotin-labeled)
[5] = FACS binding assay, HT-29 cells, competition with tracer 3BP-2776 (10 nM, biotin-labeled)

Compound: CC(C)[C@H](NC(=O)CN1CCC(NC(=O)CN2CCN(CC(=O)O)CCN(CC(=O)O)CCN(CC(=O)O)CC2)CC1)C(=O)N[C@@H](Cc1ccc(O)cc1)C(=O)N[C@H]1CSCc2cccc(c2)CSC[C@@H](C(N)=O)NC(=O)[C@H](CO)NC(=O)[C@H](Cc2c[nH]c3ccccc23)NC(=O)[C@H]([C@@H](C)O)NC(=O)C2(CCCCC2)NC(=O)[C@H](Cc2c[nH]c3ccccc23)NC(=O)[C@H](CC(=O)O)NC(=O)[C@H]2CCCN2C(=O)[C@H](CCC(=O)O)NC1=O [3BP-3584] ({DOTA}-[X2]VYCE[dP]DW[Ac6c]TWSC-NH2; linker 4-13 via mXylylene)
% intact compound remaining (incubation time) ([1]; 24 h): >95% | t1/2 category (activity) [2]: B (t1/2 between 5.1 and 15.0 minutes) | Kd [2]: < 10 nM | IC50 [3, 4]: < 10 nM

Compound: CC(C)C[C@@H]1NC(=O)[C@H](Cc2c[nH]c3ccccc23)NC(=O)[C@H](CC(=O)O)NC(=O)[C@H]2CCCN2C(=O)[C@H](CCC(=O)O)NC(=O)[C@@H](NC(=O)[C@H](Cc2ccc(O)cc2)NC(=O)[C@@H](NC(=O)CN2CCC(NC(=O)CN3CCN(CC(=O)O)CCN(CC(=O)O)CCN(CC(=O)O)CC3)CC2)C(C)C)CSCc2cccc(c2)CSC[C@@H](C(N)=O)NC(=O)[C@H](CCCNC(=N)N)NC(=O)[C@H](Cc2c[nH]c3ccccc23)NC(=O)[C@H]([C@@H](C)O)NC1=O [3BP-3599] ({DOTA}-[X2]VYCE[dP]DWLTWRC-NH2; linker 4-13 via mXylylene)
% intact compound remaining (incubation time) ([1]; 6 h): 52% | t1/2 category (activity) [2]: B (t1/2 between 5.1 and 15.0 minutes) | Kd [2]: < 10 nM | IC50 [3, 4]: < 10 nM

Compound: CC(C)C[C@@H]1NC(=O)[C@H](Cc2c[nH]c3ccccc23)NC(=O)[C@H](CC(=O)O)NC(=O)[C@H]2CCCN2C(=O)[C@H](CCC(=O)O)NC(=O)[C@@H](NC(=O)[C@H](Cc2ccc(O)cc2)NC(=O)[C@@H](NC(=O)CN2CCC(NC(=O)CN3CCN(CC(=O)O)CCN(CC(=O)O)CCN(CC(=O)O)CC3)CC2)C(C)C)CSCc2cccc(c2)CSC[C@@H](C(N)=O)NC(=O)[C@H](CO)NC(=O)[C@H](Cc2c[nH]c3ccccc23)NC(=O)[C@H]([C@@H](C)O)NC1=O [3BP-3905] ({DOTA}-[X2]VYCE[dP]DWLTWSC-NH2; linker 4-13 via mXylylene)
% intact compound remaining (incubation time) ([1]; 24 h): 83% | Kd [2]: < 10 nM

Compound: CC(C)C[C@@H]1NC(=O)[C@H](Cc2cccc(NC(=O)c3cccc(NS(N)(=O)=O)n3)c2)NC(=O)[C@H](CC(=O)O)NC(=O)[C@H]2CCCN2C(=O)[C@H](CCC(=O)O)NC(=O)[C@@H](NC(=O)[C@H](CCC(N)=O)NC(=O)CN2CCN(C(=O)CN3CCN(CC(=O)O)CCN(CC(=O)O)CCN(CC(=O)O)CC3)CC2)CSCc2cccc(c2)CSC[C@@H](C(N)=O)NC(=O)[C@H](CO)NC(=O)[C@H](Cc2c[nH]c3ccccc23)NC(=O)[C@H]([C@@H](C)O)NC1=O [3BP-4514]
t1/2 category (activity) [2]: B (t1/2 between 5.1 and 15.0 minutes) | Kd [2]: < 10 nM | IC50 [3, 5]: < 10 nM

Compound: CC(C)C[C@@H]1NC(=O)[C@H](Cc2cccc(NC(=O)CCCC(=O)NO)c2)NC(=O)[C@H](CC(=O)O)NC(=O)[C@H]2CCCN2C(=O)[C@H](CCC(=O)O)NC(=O)[C@@H](NC(=O)[C@H](CCC(N)=O)NC(=O)CN2CCN(C(=O)CN3CCN(CC(=O)O)CCN(CC(=O)O)CCN(CC(=O)O)CC3)CC2)CSCc2cccc(c2)CSC[C@@H](C(N)=O)NC(=O)[C@H](CO)NC(=O)[C@H](Cc2c[nH]c3ccccc23)NC(=O)[C@H]([C@@H](C)O)NC1=O [3BP-4515]
t1/2 category (activity) [2]: C (t1/2 between 2.1 and 5.0 minutes) | Kd [2]: < 10 nM | IC50 [3, 5]: 10 to 79.4 nM

Compound: CC(C)C[C@@H]1NC(=O)[C@H](Cc2cccc(NC(=O)c3cc(S(N)(=O)=O)c[nH]3)c2)NC(=O)[C@H](CC(=O)O)NC(=O)[C@H]2CCCN2C(=O)[C@H](CCC(=O)O)NC(=O)[C@@H](NC(=O)[C@H](CCC(N)=O)NC(=O)CN2CCN(C(=O)CN3CCN(CC(=O)O)CCN(CC(=O)O)CCN(CC(=O)O)CC3)CC2)CSCc2cccc(c2)CSC[C@@H](C(N)=O)NC(=O)[C@H](CO)NC(=O)[C@H](Cc2c[nH]c3ccccc23)NC(=O)[C@H]([C@@H](C)O)NC1=O [3BP-4789]
t1/2 category (activity) [2]: C (t1/2 between 2.1 and 5.0 minutes) | Kd [2]: 10 to 79.4 nM | IC50 [3, 5]: 10 to 79.4 nM

Compound: CC(C)C[C@@H]1NC(=O)[C@H](Cc2ccc(NC(=O)c3cc(S(N)(=O)=O)co3)cc2)NC(=O)[C@H](CC(=O)O)NC(=O)[C@H]2CCCN2C(=O)[C@H](CCC(=O)O)NC(=O)[C@@H](NC(=O)[C@H](CCC(N)=O)NC(=O)CN2CCN(C(=O)CN3CCN(CC(=O)O)CCN(CC(=O)O)CCN(CC(=O)O)CC3)CC2)CSCc2cccc(c2)CSC[C@@H](C(N)=O)NC(=O)[C@H](CO)NC(=O)[C@H](Cc2c[nH]c3ccccc23)NC(=O)[C@H]([C@@H](C)O)NC1=O [3BP-4813] ({DOTA}-[X1]QCE[dP]D[Phe(4-NH2)](X31)LTWSC-NH2; linker 3-12 via mXylylene)
t1/2 category (activity) [2]: C (t1/2 between 2.1 and 5.0 minutes) | Kd [2]: 10 to 79.4 nM | IC50 [3, 5]: 10 to 79.4 nM

Second part, the molecule after the results:

% intact compound remaining (incubation time) ([1]; 24 h): >95% | t1/2 category (activity) [2]: B (t1/2 between 5.1 and 15.0 minutes) | Kd [2]: < 10 nM | IC50 [3, 4]: < 10 nM
Compound: CC(=O)N[C@@H](CO)C(=O)N[C@@H](Cc1ccc(O)cc1)C(=O)N[C@H]1CSCc2cccc(c2)CSC[C@@H](C(N)=O)NC(=O)[C@H](CCC(=O)NCCCNC(=O)COCCOCCNC(=O)CN2CCN(CC(=O)O)CCN(CC(=O)O)CCN(CC(=O)O)CC2)NC(=O)[C@H](Cc2c[nH]c3ccccc23)NC(=O)[C@H]([C@@H](C)O)NC(=O)[C@H](CC(C)C)NC(=O)[C@H](Cc2c[nH]c3ccccc23)NC(=O)[C@H](CC(=O)O)NC(=O)[C@H]2CCCN2C(=O)[C@H](CCC(=O)O)NC1=O [3BP-3732] (Ac-SYCE[dP]DWLTWE(NH(CH2)3NH(O2Oc(DOTA)))C-NH2; linker 3-12 via mXylylene)

% intact compound remaining (incubation time) ([1]; 24 h): 79% | t1/2 category (activity) [2]: B (t1/2 between 5.1 and 15.0 minutes) | Kd [2]: < 10 nM | IC50 [3, 4]: < 10 nM
Compound: CC(=O)N[C@H](C(=O)N[C@@H](CCCNC(=N)N)C(=O)N[C@H]1CSCc2cccc(c2)CSC[C@@H](C(N)=O)NC(=O)[C@H](CCC(=O)NCCCNC(=O)COCCOCCNC(=O)CN2CCN(CC(=O)O)CCN(CC(=O)O)CCN(CC(=O)O)CC2)NC(=O)[C@H](Cc2c[nH]c3ccccc23)NC(=O)[C@H]([C@@H](C)O)NC(=O)[C@H](CC(C)C)NC(=O)[C@H](Cc2c[nH]c3ccccc23)NC(=O)[C@H](CC(=O)O)NC(=O)[C@H]2CCCN2C(=O)[C@H](CCC(=O)O)NC1=O)C(C)C [3BP-3734] (Ac-VRCE[dP]DWLTWE(NH(CH2)3NH(O2Oc(DOTA)))C-NH2; linker 3-12 via mXylylene)

% intact compound remaining (incubation time) ([1]; 24 h): 76%
Compound: CC(=O)N[C@H](C(=O)N[C@@H](CCCNC(=N)N)C(=O)N[C@H]1CSCc2cccc(c2)CSC[C@@H](C(N)=O)NC(=O)[C@H](CCC(=O)NCCCNC(=O)COCCOCCNC(=O)CN2CCN(CC(=O)O)CCN(CC(=O)O)CCN(CC(=O)O)CC2)NC(=O)[C@H](Cc2c[nH]c3ccccc23)NC(=O)[C@H]([C@@H](C)O)NC(=O)[C@H](CC(C)C)NC(=O)[C@H](Cc2c[nH]c3ccccc23)NC(=O)[C@H](CC(=O)O)NC(=O)[C@H]2CCCN2C(=O)[C@H](CCC(=O)O)NC1=O)C(C)C [3BP-3845] (Ac-VRCE[dP]DWLTWE(NH(CH2)3NH(O2Oc(DOTA)))C-NH2; linker 3-12 via mXylylene)

% intact compound remaining (incubation time) ([1]; 24 h): >95% | Kd [2]: < 10 nM
Compound: CC(C)C[C@@H]1NC(=O)[C@H](Cc2c[nH]c3ccccc23)NC(=O)[C@H](CC(=O)O)NC(=O)[C@H]2CCCN2C(=O)[C@H](CCC(=O)O)NC(=O)[C@@H](NC(=O)[C@H](Cc2ccc(O)cc2)NC(=O)CN2CCN(CC(=O)O)CCN(CC(=O)O)CCN(CC(=O)O)CC2)CSCc2cccc(c2)CSC[C@@H](C(N)=O)NC(=O)[C@H](CO)NC(=O)[C@H](Cc2c[nH]c3ccccc23)NC(=O)[C@H]([C@@H](C)O)NC1=O [3BP-3906] ({DOTA}-YCE[dP]DWLTWSC-NH2; linker 2-11 via mXylylene)

% intact compound remaining (incubation time) ([1]; 24 h): 91%
Compound: CC(C)C[C@@H]1NC(=O)[C@H](Cc2c[nH]c3ccccc23)NC(=O)[C@@H]2CCCCNC(=O)CC[C@H](NC1=O)C(=O)N[C@@H](Cc1c[nH]c3ccccc13)C(=O)N[C@@H](CO)C(=O)N[C@H](C(N)=O)CSCc1cccc(c1)CSC[C@H](NC(=O)[C@H](Cc1ccc(O)cc1)NC(=O)CN1CCN(CC(=O)O)CCN(CC(=O)O)CCN(CC(=O)O)CC1)C(=O)N[C@@H](CCC(=O)O)C(=O)N1CCC[C@@H]1C(=O)N2 [3BP-4053] ({DOTA}-YCE[dP]KWLEWSC-NH2; linker 2-11 via mXylylene; lactam 5-8)

t1/2 category (activity) [2]: A (t1/2>15.0 minutes) | Kd [2]: < 10 nM | IC50 [3, 5]: < 10 nM
Compound: CC(C)C[C@@H]1NC(=O)[C@H](Cc2cccc(NC(=O)c3cc(S(N)(=O)=O)co3)c2)NC(=O)[C@H](CC(=O)O)NC(=O)[C@H]2CCCN2C(=O)[C@H](CCC(=O)O)NC(=O)[C@@H](NC(=O)[C@H](CCC(N)=O)NC(=O)CN2CCN(C(=O)CN3CCN(CC(=O)O)CCN(CC(=O)O)CCN(CC(=O)O)CC3)CC2)CSCc2cccc(c2)CSC[C@@H](C(N)=O)NC(=O)[C@H](CO)NC(=O)[C@H](Cc2c[nH]c3ccccc23)NC(=O)[C@H]([C@@H](C)O)NC1=O [3BP-4788]

t1/2 category (activity) [2]: A (t1/2>15.0 minutes) | Kd [2]: < 10 nM | IC50 [3, 5]: < 10 nM
Compound: CC(C)C[C@@H]1NC(=O)[C@H](Cc2cccc(NC(=O)Cn3cc(S(N)(=O)=O)cn3)c2)NC(=O)[C@H](CC(=O)O)NC(=O)[C@H]2CCCN2C(=O)[C@H](CCC(=O)O)NC(=O)[C@@H](NC(=O)[C@H](CCC(N)=O)NC(=O)CN2CCN(C(=O)CN3CCN(CC(=O)O)CCN(CC(=O)O)CCN(CC(=O)O)CC3)CC2)CSCc2cccc(c2)CSC[C@@H](C(N)=O)NC(=O)[C@H](CO)NC(=O)[C@H](Cc2c[nH]c3ccccc23)NC(=O)[C@H]([C@@H](C)O)NC1=O [3BP-4790]

— patent US20250339569A1, “CARBONIC ANHYDRASE IX LIGANDS” (priority 2021, published 2025)
